Reference: patent publication US7939546B2, “Quinoline derivatives for modulating DNA methylation” (SuperGen, Inc., priority 2007, dated 2011)
Counter-ions that a name gives are not always drawn.

Assays:
DNMT1 = DNMT1 (Homo sapiens, UniProt P26358); experiment: Selective depletion of DNMT1 by Western blot in treated HCT116 cells; format: cell-based; parameters: Protein extracts (equivalent to 100 μg) were isolated from HCT116 cells; endogenous in cells; host or cells: HCT116; conditions: for % DNMT1 protein level remaining at 10 µM: HCT-116, 10 μM; for % DNMT1 protein level remaining at 5 µM: HCT-116, 5 μM
Excerpt: Biol. 2005, 11, 4727-41.]. For DNMT1, commercially available antibodies from Santa Cruz or New England Biolabs were used.

Chain of DNMT1 (P26358 whole entry): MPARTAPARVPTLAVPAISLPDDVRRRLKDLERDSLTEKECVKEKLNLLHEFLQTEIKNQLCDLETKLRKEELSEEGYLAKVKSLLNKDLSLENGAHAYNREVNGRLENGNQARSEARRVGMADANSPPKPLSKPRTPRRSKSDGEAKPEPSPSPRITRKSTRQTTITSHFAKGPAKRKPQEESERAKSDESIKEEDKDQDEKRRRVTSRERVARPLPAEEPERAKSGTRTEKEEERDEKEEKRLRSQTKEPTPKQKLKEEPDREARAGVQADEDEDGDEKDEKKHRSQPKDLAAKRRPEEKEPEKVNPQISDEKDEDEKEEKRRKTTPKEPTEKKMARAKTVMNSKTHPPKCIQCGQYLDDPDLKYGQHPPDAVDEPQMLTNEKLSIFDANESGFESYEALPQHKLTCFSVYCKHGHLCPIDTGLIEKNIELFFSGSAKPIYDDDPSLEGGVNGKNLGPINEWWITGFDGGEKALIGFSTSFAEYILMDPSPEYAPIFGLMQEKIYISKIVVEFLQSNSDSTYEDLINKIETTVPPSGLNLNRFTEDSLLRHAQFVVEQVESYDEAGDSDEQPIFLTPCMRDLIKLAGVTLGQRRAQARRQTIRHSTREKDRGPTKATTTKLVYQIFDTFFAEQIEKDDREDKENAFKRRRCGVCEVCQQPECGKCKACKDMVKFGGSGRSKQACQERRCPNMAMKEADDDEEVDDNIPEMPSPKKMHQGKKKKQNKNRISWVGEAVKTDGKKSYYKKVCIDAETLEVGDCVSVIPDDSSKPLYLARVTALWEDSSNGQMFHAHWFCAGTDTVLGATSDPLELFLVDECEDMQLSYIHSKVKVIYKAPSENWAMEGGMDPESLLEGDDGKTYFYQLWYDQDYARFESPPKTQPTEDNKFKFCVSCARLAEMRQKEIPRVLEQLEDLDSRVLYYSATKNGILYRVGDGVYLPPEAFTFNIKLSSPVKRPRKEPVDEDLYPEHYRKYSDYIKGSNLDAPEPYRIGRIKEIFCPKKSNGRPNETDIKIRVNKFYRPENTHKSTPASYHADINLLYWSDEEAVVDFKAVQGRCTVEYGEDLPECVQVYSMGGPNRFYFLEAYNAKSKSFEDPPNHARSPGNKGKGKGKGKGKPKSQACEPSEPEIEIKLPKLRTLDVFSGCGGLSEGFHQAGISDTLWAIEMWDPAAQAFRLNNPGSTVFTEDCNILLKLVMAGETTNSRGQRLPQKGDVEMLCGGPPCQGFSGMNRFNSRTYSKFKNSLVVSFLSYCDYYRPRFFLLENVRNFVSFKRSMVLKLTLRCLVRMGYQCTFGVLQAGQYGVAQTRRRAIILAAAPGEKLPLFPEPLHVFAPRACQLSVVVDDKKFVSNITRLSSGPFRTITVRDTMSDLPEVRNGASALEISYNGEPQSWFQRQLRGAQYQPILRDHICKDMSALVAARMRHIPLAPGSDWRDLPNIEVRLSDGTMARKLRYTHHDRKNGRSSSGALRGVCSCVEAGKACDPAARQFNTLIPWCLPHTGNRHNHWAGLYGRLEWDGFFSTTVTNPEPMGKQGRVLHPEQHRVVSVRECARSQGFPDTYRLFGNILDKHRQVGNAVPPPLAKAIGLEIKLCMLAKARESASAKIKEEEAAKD

Row | Structure (SMILES) | melting point [°C] | % DNMT1 protein level remaining at 10 µM (DNMT1) [%] | % DNMT1 protein level remaining at 5 µM (DNMT1) [%] | other results
1 | Cc1cc(Nc2ccc(C(=O)Nc3ccc(Nc4ccnc5ccc(N)cc45)cc3)cc2)nc(N)n1 (as salt: hydrochloride) [Cpd. GG3, 4-[(2-amino-6-methyl-4-pyrimidinyl)amino]-N-{4-[(6-amino-4-quinolinyl)amino]phenyl}benzamide dihydrochloride] | > 300 |  |  | 
2 | C[n+]1ccc(Nc2cccc(NC(=O)c3ccc(Nc4ccnc5ccccc45)cc3)c2)cc1 (as salt: chloride) [Cpd. A, 1-methyl-4-(3-{[4-(4-quinolinylamino)benzoyl]amino}anilino)pyridinium chloride] | 253 to 257 |  |  | 
3 | Cc1cc(Nc2cccc(C(=O)Nc3ccc(Nc4ccnc5ccccc45)cc3)c2)nc(N)n1 (as salt: hydrochloride) [Cpd. FF1, 3-[(2-amino-6-methyl-4-pyrimidinyl)amino]-N-[4-(4-quinolinylamino)phenyl]benzamide dihydrochloride] | > 300 |  |  | 
4 | C/C(=N\N=C(N)N)c1cccc(C(=O)Nc2ccc(Nc3ccnc4ccc(N(C)C)cc34)cc2)c1 (as salt: chloride) [Cpd. QQ, 4-[4-({3-[(1E)-N-(diaminomethylene)ethanehydrazonoyl]-benzoyl}amino)anilino]-6-(dimethylamino)quinolinium chloride] | > 280 |  |  | 
5 | Cc1cc(Nc2ccc(NC(=O)c3ccc(Nc4ccnc5c(F)c(F)c(F)cc45)cc3)cc2)nc(N)n1 [Cpd. KK, n-[4-(2-amino-6-methylpyrimidin-4-ylamino)phenyl]-4-(6,7,8-trifluoroquinolin-4-ylamino)benzamide dihydrochloride] |  | 20 | 82 | 
6 | C/C(=N\N=C(N)N)c1ccc(C(=O)Nc2ccc(Nc3ccnc4ccc(N(C)C)cc34)cc2)cc1 (as salt: hydrochloride) [Cpd. PP, 4-[(1E)-N-(diaminomethylene)ethanehydrazonoyl]-N-(4-{[6-(dimethylamino)-4-quinolinyl]amino}phenyl)benzamide dihydrochloride] | > 300 |  |  | 
7 | C/C(=N\N=C(N)N)c1ccc(NC(=O)c2ccc(Nc3ccnc4ccc(N(C)C)cc34)cc2)cc1 (as salt: hydrochloride) [Cpd. NN, (E)-N-(4-(1-((Diaminomethylene)hydrazono)ethyl)phenyl)-4-(6-(dimethylamino)quinolin-4-ylamino)benzamide Dihydrochloride] | > 280 |  |  | 
8 | Cc1cc(Nc2ccc(NC(=O)c3ccc(Nc4ccnc5cc(N(C)C)ccc45)cc3)cc2)nc(N)n1 (as salt: hydrochloride) [Cpd. BB, N-[4-(2-amino-6-methylpyrimidin-4-ylamino)phenyl]-4-(7-(dimethylamino)quinolin-4-ylamino)benzamide hydrochloride] | 272 to 275 |  |  | 
9 | Cc1cc(Nc2ccc(C(=O)Nc3ccc(Nc4ccnc5ccc([N+](=O)[O-])cc45)cc3)cc2)nc(N)n1 [Cpd. GG4, 4-[(2-Amino-6-methyl-4-pyrimidinyl)amino]-N-{4-[(6-nitro-4-quinolinyl)amino]phenyl}benzamide dihydrochloride] |  | 90 |  | 
10 | Cc1cc(Nc2ccc(C(=O)Nc3ccc(Nc4ccnc5ccc(N)cc45)cc3)cc2)nc(N)n1 [Cpd. GG3, 4-[(2-amino-6-methyl-4-pyrimidinyl)amino]-N-{4-[(6-amino-4-quinolinyl)amino]phenyl}benzamide dihydrochloride] |  | 10 | 110 | 
11 | Cc1cc(Nc2cccc(C(=O)Nc3ccc(Nc4ccnc5ccccc45)cc3)c2)nc(N)n1 [Cpd. FF1, 3-[(2-amino-6-methyl-4-pyrimidinyl)amino]-N-[4-(4-quinolinylamino)phenyl]benzamide dihydrochloride] |  | 5 | 15 | 
12 | Cc1cc(Nc2ccc(C(=O)Nc3ccc(Nc4ccnc5ccccc45)cc3)cc2)nc(N)n1 [Cpd. GG1, 4-[(2-amino-6-methyl-4-pyrimidinyl)amino]-N-[4-(4-quinolinylamino)phenyl]benzamide dihydrochloride] |  | 20 | 25 | 
13 | Cc1cc(Nc2ccc(C(=O)Nc3ccc(Nc4ccnc5ccc(N(C)C)cc45)cc3)cc2)nc(N)n1 [Cpd. HH, 4-[(2-amino-6-methyl-4-pyrimidinyl)amino]-N-(4-{[6-(dimethylamino)-4-quinolinyl]amino}phenyl)benzamide dihydrochloride] |  | 90 |  | 
14 | C/C(=N\N=C(N)N)c1ccc(C(=O)Nc2ccc(Nc3ccnc4ccc(N(C)C)cc34)cc2)cc1 [Cpd. PP, 4-[(1E)-N-(diaminomethylene)ethanehydrazonoyl]-N-(4-{[6-(dimethylamino)-4-quinolinyl]amino}phenyl)benzamide dihydrochloride] |  | 70 | 60 | 
15 | C/C(=N\N=C(N)N)c1ccc(NC(=O)c2ccc(Nc3ccnc4ccc(N(C)C)cc34)cc2)cc1 [Cpd. NN, (E)-N-(4-(1-((Diaminomethylene)hydrazono)ethyl)phenyl)-4-(6-(dimethylamino)quinolin-4-ylamino)benzamide Dihydrochloride] |  | 70 | 70 | 
16 | Cl.Cl.O=C(Nc1ccc(Nc2ccncc2)cc1)c1ccc(Nc2ccnc3ccccc23)cc1 [Cpd. EEE2, n-[4-(pyridin-4-ylamino)phenyl]-4-(quinolin-4-ylamino)benzamide dihydrochloride] |  |  |  | % DNMT1 Level (DNMT1; 5 μM): 3%; % DNMT1 Level (DNMT1; 10 μM): 0%
17 | C/C(=N\N=C(N)N)c1cccc(C(=O)Nc2ccc(Nc3ccnc4ccc(N(C)C)cc34)cc2)c1 [Cpd. QQ, 4-[4-({3-[(1E)-N-(diaminomethylene)ethanehydrazonoyl]-benzoyl}amino)anilino]-6-(dimethylamino)quinolinium chloride] |  | 50 | 60 | 
18 | Cc1cc(Nc2ccc(C(=O)Nc3ccc(Nc4ccnc5cc([N+](=O)[O-])ccc45)cc3)cc2)nc(N)n1 [Cpd. GG5, 4-[(2-Amino-6-methyl-4-pyrimidinyl)amino]-N-{4-[(7-nitro-4-quinolinyl)amino]phenyl}benzamide dihydrochloride] |  | 90 |  | 
19 | Nc1cc(Nc2cccc(C(=O)Nc3ccc(Nc4ccnc5ccccc45)cc3)c2)nc(N)n1 [Cpd. FF2, 3-[(2,6-Diamino-4-pyrimidinyl)amino]-N-[4-(4-quinolinylamino)-phenyl]benzamide dihydrochloride] |  | 83 | 85 | 
20 | Cc1cc(Nc2cccc(C(=O)Nc3ccc(Nc4ccnc5ccc(N(C)C)cc45)cc3)c2)nc(N)n1 [Cpd. EE, 4-[4-({3-[(2-amino-6-methyl-4-pyrimidinyl)amino]benzoyl}amino)anilino]-6-(dimethylamino)quinolinium chloride] |  | 10 | 30 | 
21 | Cc1cc(Nc2ccc(C(=O)Nc3ccc(Nc4ccnc5cc(N)ccc45)cc3)cc2)nc(N)n1 [Cpd. GG2, 4-[(2-Amino-6-methyl-4-pyrimidinyl)amino]-N-{4-[(7-amino-4-quinolinyl)amino]phenyl}benzamide dihydrochloride] |  | 52 | 85 | 
22 | C[n+]1ccc(Nc2ccc(NC(=O)c3ccc(Nc4ccnc5ccc([N+](=O)[O-])cc45)cc3)cc2)cc1 [Cpd. G, 1-methyl-4-(4-(4-(6-nitroquinolin-4-ylamino)benzamido)phenylamino)pyridinium chloride hydrochloride] |  | 95 | 95 | % DNMT1 protein level remaining at 100 µM (DNMT1; HCT-116, 100 μM): 100%

Now from value to molecule, other results behind:

Row | melting point [°C] | % DNMT1 protein level remaining at 10 µM (DNMT1) [%] | % DNMT1 protein level remaining at 5 µM (DNMT1) [%] | Structure (SMILES) | other results
23 | > 300 |  |  | Nc1cc(Nc2cccc(C(=O)Nc3ccc(Nc4ccnc5ccc([N+](=O)[O-])cc45)cc3)c2)nc(N)n1 (as salt: hydrochloride) [Cpd. RR1, 3-[(2,6-diamino-4-pyrimidinyl)amino]-N-{4-[(6-nitro-4-quinolinyl)amino]phenyl}benzamide dihydrochloride] | 
24 |  | 100 |  | Cc1cc(Nc2cccc(C(=O)Nc3ccc(Nc4ccnc5ccc(N)cc45)cc3)c2)nc(N)n1 [RR3, 3-[(2-Amino-6-methyl-4-pyrimidinyl)amino]-N-{4-[(6-amino-4-quinolinyl)amino]phenyl}benzamide dihydrochloride] | 
25 | 280 to 284 |  |  | Cc1cc(Nc2cccc(C(=O)Nc3ccc(Nc4ccnc5ccc(N)cc45)cc3)c2)nc(N)n1 (as salt: hydrochloride) [RR3, 3-[(2-Amino-6-methyl-4-pyrimidinyl)amino]-N-{4-[(6-amino-4-quinolinyl)amino]phenyl}benzamide dihydrochloride] | 
26 |  | 100 |  | Cc1cc(Nc2cccc(C(=O)Nc3ccc(Nc4ccnc5ccc([N+](=O)[O-])cc45)cc3)c2)nc(N)n1 [RR2, 3-[(2-amino-6-methyl-4-pyrimidinyl)amino]-N-{4-[(6-nitro-4-quinolinyl)amino]phenyl}benzamide dihydrochloride] | 
27 |  | 100 |  | Nc1cc(Nc2cccc(C(=O)Nc3ccc(Nc4ccnc5ccc([N+](=O)[O-])cc45)cc3)c2)nc(N)n1 [Cpd. RR1, 3-[(2,6-diamino-4-pyrimidinyl)amino]-N-{4-[(6-nitro-4-quinolinyl)amino]phenyl}benzamide dihydrochloride] | 
28 |  | 70 | 75 | C/C(=N\N=C(N)N)c1cccc(NC(=O)c2ccc(Nc3ccnc4ccc(N(C)C)cc34)cc2)c1 [Cpd. JJ1, (E)-N-[3-(1-{(diaminomethylene)hydrazono}ethyl)phenyl]-4-[6-(dimethylamino)quinolin-4-ylamino]benzamide dihydrochloride] | 
29 |  | 130 | 147 | C/C(=N\N=C(N)N)c1cccc(NC(=O)c2ccc(Nc3ccnc4ccccc34)cc2)c1 [Cpd. JJ2, (E)-N-[3-(1-{(Diaminomethylene)hydrazono}ethyl)phenyl]-4-(quinolin-4-ylamino)benzamide dihydrochloride] | 
